# Laboratory results reported in US10952992B2, “Methods of treating intraocular pressure with activators of Tie-2” (Aerpio Pharmaceuticals, Inc., priority 2015, dated 2021).
# System: intraocular pressure, study eye/fellow eye
# Experiment: Intraocular pressure with Compound 1 + sham, Compound 1 + RBZ or placebo + RBZ, months 1-3 (FIG. 2, TABLE 1)
# Format: in vivo, human
# Protocol: The difference in IOP was determined relative to a pre-treatment baseline (Base) at months 1, 2, and 3 (M1-M3). Intraocular pressure was determined in the study eye in millimeters of mercury (mmHg). […] The difference in IOP was determined relative to a pre-treatment Baseline at Months 1, 2, and 3. Intraocular pressure was determined in the study eye/fellow eye in mmHg.
substance,measurement,setting,value
placebo + RBZ: a placebo combined with RBZ (ranibizumab),"IOP, fellow eye",Baseline (pre-treatment),15.8 mmHg
same,"IOP, study eye",Baseline (pre-treatment),15.2 mmHg
same,"IOP, fellow eye",Month 1,15.5 mmHg
same,"IOP, study eye",Month 1,15.0 mmHg
same,"IOP, fellow eye",Month 2,15.5 mmHg
same,"IOP, study eye",Month 2,15.0 mmHg
same,"IOP, fellow eye",Month 3,15.7 mmHg
same,"IOP, study eye",Month 3,15.3 mmHg
